Results on 13 compounds are retold here after patent US6281250A, “Retinyl ethers, derivatives and analogues and inhibition of breast carcinogenesis” (Southern Research Institute, priority 1999, dated 2001).

For data set [1] the following is noted: 24 hours or similar, protected from light and air; Shealy et al, 1997; cited from earlier work.
Data set [2] has as its target T1, cellular retinol-binding protein (CRBP) (Rattus norvegicus, UniProt P02696).
T1 construct: portions of rat testes cytosol (1 mg protein) were incubated; from tissue; host or cells: rat testes cytosol
T1 sequence (P02696 1-135): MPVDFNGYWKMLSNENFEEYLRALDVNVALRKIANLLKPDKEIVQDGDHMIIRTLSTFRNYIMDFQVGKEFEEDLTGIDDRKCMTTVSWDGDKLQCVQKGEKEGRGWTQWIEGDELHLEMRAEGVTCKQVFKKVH
Briefly: Binding to cellular retinol-binding protein (CRBP): inhibition of [3H]retinol binding, sucrose density-gradient sedimentation. To be noted: for Percent Inhibition of [3H] Retinol Binding (CRBP Assay): 150-fold molar excess of unlabelled test retinoid, rat testes cytosol. Here is the method:
Binding affinities of the retinyl ethers for CRBP were determined by sucrose, density-gradient, sedimentation analysis as described before (Sani et al., 1980). Briefly, portions of rat testes cytosol (1 mg protein) were incubated with [^3 H]retinol (50 pmol) in the presence or absence of a 150-fold molar excess of unlabeled retinol or the test retinoids. The preparations after dialysis were analyzed by 5-20% sucrose density gradient sedimentation. For measuring the competitive binding of the unlabeled retinoids, inhibition of [^3 H]retinol binding to CRBP by unlabeled retinol is regarded as 100%. The mean and standard deviation calculated from the relative inhibitions obtained from multiple determinations were used as the relative binding affinities of the various retinyl ethers.
The group of retinyl benzyl ethers has now been evaluated for binding to CRBP. Binding to CRBP, as defined for Table I, at approximately 60% or higher was rated as strong; at 40-60%, as moderate; at 20-40%, as low.
^a Per cent inhibition of binding of tritiated retinol to CRBP by a
150-fold molar excess of the unlabelled test retinoid (Sani et al., 1980,

Data set [3] concerns MNU-induced mammary cancer. As to the kind of experiment: Short-term (90-day) assay against MNU-induced mammary cancer in rats (Expts. 2 and 3). In kind it is in vivo, rat (female Sprague-Dawley). The note with it: 90 days; for effectiveness in reducing the number of tumors per rat: in feed. The method, then:
(§1) Retinoid diet mixtures were stored at 4° C. […] The animals were palpated for mammary tumors 2×/week. […] Also, five rats/group had complete necropsies performed.
(§2) The 2,5-dimethoxybenzyl (3b) and 4-methoxybenzyl (3e) ethers were tested in the same way in a 90-day study. […] The 2,5-dimethybenzyl (3c) and the 2,3-dimethoxybenzyl (3h) ethers, together with RTMBE for comparison, were likewise assayed according to the same methodology. Prior to the beginning of this study, specimens of the retinoid-diet mixtures were placed under the conditions that were employed during the storage and feeding of RTMBE, 3c, and 3h. The specimens were extracted with butanol, and the extracts were analyzed by HPLC. […] Testing of 3c and 3h was discontinued, but the RTMBE study was continued until the duration of the study was 180 days (Table 6). The results were similar to those of Experiment 1 (Table 3). The averages of the number of tumors per rat were reduced by 32-35%; in addition, the averages of the tumor weights per rat was 56-70% lower than the average tumor burden of the control group.
and was continued until the studies of 3b, 3c, 3e, and 3h were terminated
90 days after administration of MNU. The RTMBE experiment was continued
until 180 days after MNU administration (Table VI).
kilogram of Teklad diet.

Data set [4] is described as follows: Analysis of feed samples for stability of retinyl ethers. In kind it is physicochemical. To be noted: for % recovery of retinyl ether: Vehicle + Retinoid (only); for stability in diet mixtures: conditions of storage and feeding in animal rooms. Here is the method: as §2
^a The values in each column are % recoveries of the retinyl ether from
mixtures of the ether with feed samples and are based on the actual
amounts of the ether that were added.
^b The samples that were analyzed were mixtures of vehicle, retinoid,
and feed (prepared as described by Shealy et al., 1997).
^c Food cups were placed in animal cages within the room that housed
the rats; therefore, temperature (22° C.) and lighting were
identical to those in use during the in vivo tests.

Another data set is described as follows: in vivo. Here is the method: Toxicological evaluations involving measurement of body weights and observations of clinical signs characteristic of retinoid toxicity were accomplished as previously described (Lin et al., 1996).
RTMBE and two of its analogues, together with RME and RPE, were selected for estimation of their toxicities to mice when administered during 28-29 days by gavage in corn oil (Table 8). Mice were evaluated for changes in body weight and for signs of clinical retinoid toxicity (hypervitaminosis A) including alopecia, scaly skin, and limping. In the first experiment, these retinyl ethers were given at equimicromolar doses at three dose levels. The retinyl benzyl ethers (RTMBE, 3c, and 3e) were then tested at higher doses in a second experiment.

Data set [5] can be described thus: Toxicity observations in rats receiving retinoids in feed. To be noted: administered in feed. In kind it is in vivo, rat (Sprague-Dawley). The method, then: as §1
The conditions of data set [6]: rat, in feed; Shealy et al., 1997; cited from earlier work.
Data set [7] has as its system carcinogen-induced mammary cancer. The note with it: rats; Thompson et al., 1978 / Shealy et al., 1997; cited from earlier work.
Data set [8] deals with MNU-induced mammary cancer. The note with it: 160 days.
Method: Briefly, diets were prepared by mixing each retinoid with Wayne meal or Teklad (4%) mash diet. For each kg of diet, the retinoid was dissolved in 12 g ethanol, 19 g trioctanoin, 0.05 mL Tenox 20, and 0.05 mL d,1-alpha tocopherol prior to incorporation into the feed using a Patterson-Kelly blender. Retinoid diet mixtures were stored at 4° C. Portions of each retinoid-diet mixture were analyzed for the added retinoid to ensure homogeneity. Female Sprague-Dawley rats received an i.v. injection of MNU (45 mg/kg body weight) at 50 days of age. Diet supplementation with retinoids was initiated three days after MNU. A group of rats receiving retinyl acetate (1 mmol/kg of diet) served as the positive control. The animals were palpated for mammary tumors 2×/week. At termination of the study, mammary tumors were processed for histological classification. Also, five rats/group had complete necropsies performed. The tissues were examined histologically for pathological lesions as additional toxicological evaluation. Extracts of the liver and mammary gland (5 rats/group) were analyzed by HPLC for retinyl palmitate and/or for the dosed retinoid. Statistical analyses of cancer incidence and latency were determined using logrank analysis, while differences in cancer multiplicity were determined employing the Armitage test.
In this assay, described previously (Grubbs et al., 1995; Shealy el al., 1997), a retinoid dissolved in a solution (vehicle) consisting of ethanol and trioctanoin plus small amounts of Tenox 20 and α-tocopherol was mixed with feed, and the mixture was fed to rats after intravenous injection of MNU.
^a Female Sprague-Dawley rats (10/group) received one i.v. injection of
MNU (45 mg/kg of body weight) at 50 days of age. Diet supplementation with
retinoids was initiated at 52 days of age and was continued until the
study was terminated 160 days after administration of MNU.
^b Treatment with retinoids is stated in millimoles of retinoid per
kilogram of diet (Wayne meal).
Data set [9] relates to MNU-induced mammary tumors. To be noted: with MNU, 1 mmol/kg diet.
Method: The methods employed in the preparation of diets, analyses of retinoid-dietspecimens, and dietary treatment with retinoids of MNU-induced mammary carcinogenesis in Sprague-Dawley rats were described previously (Grubbs et al., 1995; Shealy et al., 1997). Briefly, diets were prepared by mixing each retinoid with Wayne meal or Teklad (4%) mash diet. For each kg of diet, the retinoid was dissolved in 12 g ethanol, 19 g trioctanoin, 0.05 mL Tenox 20, and 0.05 mL d,1-alpha tocopherol prior to incorporation into the feed using a Patterson-Kelly blender. Retinoid diet mixtures were stored at 4° C. Portions of each retinoid-diet mixture were analyzed for the added retinoid to ensure homogeneity. Female Sprague-Dawley rats received an i.v. injection of MNU (45 mg/kg body weight) at 50 days of age. Diet supplementation with retinoids was initiated three days after MNU. A group of rats receiving retinyl acetate (1 mmol/kg of diet) served as the positive control. The animals were palpated for mammary tumors 2×/week. At termination of the study, mammary tumors were processed for histological classification. Also, five rats/group had complete necropsies performed. The tissues were examined histologically for pathological lesions as additional toxicological evaluation. Extracts of the liver and mammary gland (5 rats/group) were analyzed by HPLC for retinyl palmitate and/or for the dosed retinoid. Statistical analyses of cancer incidence and latency were determined using logrank analysis, while differences in cancer multiplicity were determined employing the Armitage test.
^b Average number of palpable mammary tumors.
^c Diet supplementation with retinoids was initiated at 52 days of age
and was continued until the study was terminated 180 days after
administration of MNU. Treatment with retinoids is stated in millimoles of
retinoid per kilogram of diet (Wayne meal).
^d Female Sprague-Dawley rats received one i.v. injection of MNU (50
mg/kg of body weight) at 50 days of age.
[10] abbreviates: After 1 week of 4° C., 10080 min.
Where [11] appears, read: After 1 day in food cup (22° C.).
The mark [12] stands for this setting: After 2 days in food cup (22° C.).
The mark [13] stands for this setting: After 3 days in food cup (22° C.).

One may read the NOAEL as the highest dose or exposure tested at which no adverse effect was seen.

“Also recorded” adds a separate entry of the source.

As for `CC#CCOCC#CC` [Compound 1e, 2-butynyl ether], in [1], the “stability in refluxing ethanol” value was “intramolecular cyclization”.
On to `CC1=C(/C=C/C(C)=C/C=C/C(C)=C/COCc2cc(C)ccc2C)C(C)(C)CCC1` [Compound 3c, Retinyl 2,5-Dimethylbenzyl Ether], for which the “Percent Inhibition of [3H] Retinol Binding (CRBP Assay)” value (“Percent Inhibition” below) in data set [2] turned out to be 65 ± 10%. Also, the “effectiveness in reducing the number of tumors per rat” value in [3] is given as “not effective”. The “Tumors, % of Control Gp.” value in [3] (Expt. 3, 0.5 mmol/kg diet) amounted to 104%; in data set [3] (Expt. 3, 1 mmol/kg diet) it was 171%; in data set [3] (Expt. 3, 2 mmol/kg diet), 109%. Moreover, the “Tumors, Avg. No. per Rat” value in data set [3] (Expt. 3, 0.5 mmol/kg diet) was 2.0; in [3] (Expt. 3, 1 mmol/kg diet) it was 3.3; in [3] (Expt. 3, 2 mmol/kg diet), 2.1. Besides, the “% recovery of retinyl ether from feed” value in data set [4] (setting [10]) is given as 96%; in data set [4] (setting [11]), 106%; in data set [4] (setting [12]) it was 96%; in [4] (setting [13]), 102%; in [4] (Immediately After Mixing) it was 103%. The “% recovery of retinyl ether” value in data set [4] came out at 100%. For the same compound, the “stability in diet mixtures” value in data set [4] is given as “essentially unchanged”. The compound further registered a no-observed-adverse-effect level (NOAEL) in the data set “in vivo” (mouse, in vivo, po) of 431 mg/kg/day. In addition, the “Toxic Dose” value in “in vivo” (oral gavage in corn oil, 28-29 days) was > 431 mg/kg day. In addition, the “clinical toxicity (alopecia, scaly skin, limping)” value in the data set “in vivo” (oral gavage, up to highest dose (RTMBE and RMoBE-4: Expt. 2)) is given as “No evidence of clinical toxicity except for scaly skin”. Besides, the “toxicity in MNU-mammary cancer studies” value in [5] is given as “not toxic in the mammary carcinogenesis studies”.
Turning to `CC1=C(/C=C/C(C)=C/C=C/C(C)=C/COCc2ccccc2)C(C)(C)CCC1` [Compound 3d, Retinyl Benzyl Ether], in [2] (150-fold molar excess), the “binding to CRBP, in words” value is listed as “not conducive to CRBP binding; also recorded: does not bind significantly to CRBP”. Besides, the “Percent Inhibition” value in data set [2] is given as 5 ± 5%.
In the case of `COc1cccc(COC/C=C(C)/C=C/C=C(C)/C=C/C2=C(C)CCCC2(C)C)c1` [Compound 3f, Retinyl 3-Methoxy Benzyl Ether], the “binding to CRBP, in words” value in [2] (150-fold molar excess) is “modest, but significant, binding affinity”. Also, the “Percent Inhibition” value in data set [2] was found to be 20 ± 5%.
For `CC1=C(/C=C/C(C)=C/C=C/C(C)=C/COCc2ccc(C)cc2)C(C)(C)CCC1` [Compound 3g, Retinyl 4-Methylbenzyl Ether], the “binding to CRBP, in words” value in [2] (150-fold molar excess) is on record as “not conducive to CRBP binding”. Besides, the “Percent Inhibition” value in data set [2] is 0%.
`COc1cccc(COC/C=C(C)/C=C/C=C(C)/C=C/C2=C(C)CCCC2(C)C)c1OC` [Compound 3h, Retinyl 2,3-Dimethoxybenzyl Ether]: in data set [2], the “Percent Inhibition” value is recorded as 0%. Moreover, in data set [3], the “effectiveness in reducing the number of tumors per rat” value is “not effective”. For the same compound, the “Tumors, % of Control Gp.” value in data set [3] (Expt. 3, 0.5 mmol/kg diet) came out at 114%; in data set [3] (Expt. 3, 1 mmol/kg diet), 104%; in data set [3] (Expt. 3, 2 mmol/kg diet) it was 145%. Moreover, the “Tumors, Avg. No. per Rat” value was found to be 2.2 in [3] (Expt. 3, 0.5 mmol/kg diet); 2.0 in data set [3] (Expt. 3, 1 mmol/kg diet); 2.8 in data set [3] (Expt. 3, 2 mmol/kg diet). The “% recovery of retinyl ether from feed” value is reported as 99.7% in [4] (setting [10]); 95% in data set [4] (setting [11]); 94% in data set [4] (setting [12]); 97.9% in data set [4] (setting [13]); 95% in data set [4] (Immediately After Mixing). The “% recovery of retinyl ether” value in data set [4] is recorded as 98.7%. The “stability in diet mixtures” value in [4] is recorded as “essentially unchanged”.
Take `COc1ccc(COC/C=C(C)/C=C/C=C(C)/C=C/C2=C(C)CCCC2(C)C)c(OC)c1OC` [Compound 3i, Retinyl 2,3,4-Trimethoxybenzyl Ether]: in data set [2], the “Percent Inhibition” value was found to be 5 ± 5%.
The same measure, in the same setting: with `CC1=C(/C=C/C(C)=C/C=C/C(C)=C/COCc2c(C)cc(C)cc2C)C(C)(C)CCC1` [Compound 3j, Retinyl 2,4,6-Trimethylbenzyl Ether] the figure was 7 ± 6%; with `CC1=C(/C=C/C(C)=C/C=C/C(C)=C/COCc2ccc(Cl)cc2Cl)C(C)(C)CCC1` [Compound 3k, Retinyl 2,4-Dichlorobenzyl Ether], 0%; with `CC1=C(/C=C/C(C)=C/C=C/C(C)=C/COCc2c(Cl)cccc2Cl)C(C)(C)CCC1` [Compound 3l, Retinyl 2,6-Dichlorobenzyl Ether], 40 ± 5%.
Regarding `CC1=C(/C=C/C(C)=C/C=C/C(C)=C/COC(C)c2ccccc2)C(C)(C)CCC1` (stereo not drawn) [Compound 3m, Retinyl α-Methylbenzyl Ether], the “Binding to CRBP, rating” value in data set [2] (150-fold molar excess) was “strong binding”. The “Percent Inhibition” value in data set [2] came to 60 ± 0%.
For the compound `CC(C)=CCOC/C=C(C)/C=C/C=C(C)/C=C/C1=C(C)CCCC1(C)C` [RMBE, retinyl 3-methyl-2-butenyl ether], in data set [6], the “accumulation of retinyl palmitate in the liver” value was “did not cause”. Moreover, in data set [7], the “suppression of MNU-induced mammary cancer” value is “inhibited the development of MNU-induced mammary cancer; also recorded: only modestly active”.
In the case of `CC(=O)OC/C=C(C)/C=C/C=C(C)/C=C/C1=C(C)CCCC1(C)C` [Retinyl Acetate, retinyl acetate, reference compound], in data set [3] (at 1 mmol/kg), the “reduction of the number of tumors per rat” value was found to be 66%. In addition, in data set [3] (Expt. 2, 1 mmol/kg diet), the “Tumors, % of Control Gp.” value came out at 34% and the “Tumors, Avg. No. per Rat” value is given as 1.2. Besides, in data set [8] (1 mmol/kg diet), the “Adenocarcinomas, % of Control Group A” value turned out to be 70% and the “Adenocarcinomas, Avg. No. Per Rat” value stood at 4.5. In addition, the “reduction of average number of tumors per rat” value in data set [8] (1 mmol/kg feed) was found to be 30%. For the same compound, in data set [9], the “% of Control Gp., Day 90” value was 48%; the “% of Control Gp., Day 180” value stood at 49%; the “Avg No. Per Rat (palpable mammary tumors), Day 90” value worked out at 1.1; the “Avg No. Per Rat (palpable mammary tumors), Day 180” value was 3.1. The “accumulation of retinyl palmitate in the liver” value in [6] is “a toxic effect produced by efficacious amounts”.
